Test results: paper PMC10761937, “Functional engineering of human iPSC‐derived parasympathetic neurons enhances responsiveness to gastrointestinal hormones” (FEBS Open Bio, 2023)

Key:
[1] = test system: rat nodal ganglion cells; conditions: various concentrations; ref [31], [32], [33], [34]; cited from earlier work
Description: Previous reports indicate that rat nodal ganglion cells respond to various concentrations of hormones, including CCK, GLP1, PYY, and 5‐HT [31, 32, 33, 34]. […] However, it is noteworthy that the overexpression of these receptors in our model may not reconstruct natural expres ...

[2] = test system: NPY2R‐neurons; experiment: MEA recording of neuronal firing, NPY2R‐neurons; format: cell-based, human; conditions: PYY, 10 nM or 100 nM (both printed in Fig. 6 legend); day 27; 0 nM n = 8 electrodes, 100 nM n = 6 electrodes; Fig. 6F
Method: Before initiating differentiation, the iPSCs (1–2 × 10^5 cells·cm^−2; Cell lines and cell culture section) were transferred to 6‐well plates (Corning, Inc., Corning, NY, USA) coated with 2‐methacryloyloxyethyl phosphorylcholine (MPC) polymer (Lipidure CM5206E; NOF, Tokyo, Japan). The cells were maintained in mTeSR1 cGMP medium containing 10 μM Y‐27632 (Fujifilm Wako Pure Chemical Industries) for 2 or 3 days to form embryoid body (EBs) in a rotary shaker at 95 r.p.m. (OS‐762RC; Optime, Tokyo, Japan). Subsequently, iPSCs were differentiated into neural crest cells (NCCs), as previously reported. Briefly, NCCs were induced from Ebs using knockout serum replacement (KSR) medium and N2 medium with graded addition of nerve growth factors and signaling factors. KSR medium was composed of DMEM‐F12 (Fujifilm Wako Pure Chemical Industries), 20% KSR (Thermo Fisher Scientific), 1% NEAA, 1% monothioglycerol (Fujifilm Wako Pure Chemical Industries), and 1% P/S. N2 medium consisted of DMEM‐F12, 1% N2 supplement (Fujifilm Wako Pure Chemical Industries), 1% NEAA, and 1% P/S. When EB formation was considered day 0 of induction, the medium was changed at days 2, 5, 7, 9, and 12. […]

Substance | Response of rat nodal ganglion cells [1] | Firing frequency [2]
GLP1: GLP1 (4280‐v; Peptide Institute, Inc.); GLP1 (7–37) in Ca2+ imaging (HAEGTFTSDVSSYLEGQAAKEFIAWLVKGRG; Glucagon-like peptide 1(7-37); UniProt P01275 98-128, looked up) | respond | 
PYY: PYY (4400‐v; Peptide Institute, Inc.); PYY (3–36) in Ca2+ imaging | respond | significantly increased fluorescence intensity and firing frequency
